Results from patent US20120093951A1 (priority 2009, published 2012).
Like-named read-outs stand apart in the source and are kept apart here.

Key:
[1] = tested on: H1N1 serum subtype of swine influenza virus (SIV); format: in vivo, yellow chickens; conditions: 10 mg/day once per day for 11 days
[2] = tested on: H1N1 subtype serum swine influenza virus; format: in vivo, yellow chickens; conditions: 10 mg/day injected once per day for 7 days
[3] = tested on: swine influenza virus A/California/4/2009 and A/Hong Kong/xx/2008; format: cell-based, MDCK cells (Madin-Darby Canine Kidney Cells)

SMILES | Death Rate ([1]; 40 infected chickens) [%^] | Effective Rate ([1]; 40 infected chickens) [%] | Number of Death ([1]; of 40 infected chickens) | Death Rate ([2]; 30 infected chickens) [%^] | Effective Rate ([2]; 30 infected chickens) [%] | Number of Death ([2]; of 30 infected chickens) | Number of Detectable viruses/Total Number ([3]; Day 2, Tamiflu 10 μmol/ml) | Number of Detectable viruses/Total Number ([3]; Day 2, Tamiflu 100 μmol/ml) | Number of Detectable viruses/Total Number ([3]; Day 3, Tamiflu 10 μmol/ml) | Number of Detectable viruses/Total Number ([3]; Day 3, Tamiflu 100 μmol/ml)
CC(N)C12CC3CC(CC(C3)C1)C2 (stereo not shown) [Group C, rimantadine] | 62.5 | 37.5 | 25 | 63.3 | 36.6 | 19 |  |  |  | 
CCOC(=O)C1=C[C@@H](OC(CC)CC)[C@H](NC(C)=O)[C@@H](N)C1 [Tamiflu, Oseltamivir phosphate] |  |  |  |  |  |  | 1/2 | 0/2 | 2/2 | 2/2
